Where “and” joins values, the source holds several entries; their conditions need not be identical. Equal values may be shown once.
How the values were obtained:
[1] = system: fleabane (Erigeron canadiensis, ERICA); test: Example 1: herbicidal action; whole plants sprayed with B, PPO inhibitor applied as local leaf treatment, high light; assay type: in vivo, Erigeron canadensis
[2] = system: moringglory (Pharbitis purpurea, PHBPU); test: as above; assay type: in vivo
[3] = system: fleabane (Erigeron canadiensis, ERICA); test: Example 2: herbicidal action; whole plants sprayed with A and B in the spraying chamber, high light; assay type: in vivo, Erigeron canadensis
[4] = system: velvet leave (Abutilon theophrasti, ABUTH); test: as above; assay type: in vivo
[5] = system: morningglory (Pharbitis purpurea, PHBPU); test: as above; assay type: in vivo
[6] = system: fleabane (Erigeron canadiensis); test: Example 3: herbicidal action; whole plants sprayed with B, component A applied as local leaf treatment, high light; assay type: in vivo, Erigeron canadensis; details: ERICA
[7] = walk-in chamber, 4 DAT, rate 0.125 g/ha (A alone)
[8] = walk-in chamber, 14 DAT, rate 0.125 g/ha (A alone)
[9] = growth chamber, 4 DAT, rate 0.250 g/ha (A alone)
[10] = growth chamber, 4 DAT, rate 0.500 g/ha (A alone)
[11] = growth chamber, 14 DAT, rate 0.250 g/ha (A alone)
[12] = growth chamber, 14 DAT, rate 0.500 g/ha (A alone)
[13] = walk-in chamber, 4 DAT, rate 20 g/ha (A alone)
[14] = walk-in chamber, 14 DAT, rate 20 g/ha (A alone)
[15] = 11 DAT, rate 500 g/ha (B alone)
[16] = 10 DAT, rate 1000 g/ha (B alone)
[17] = 42 DAT, rate 1000 g/ha (B alone)
[18] = 4 DAT, rate 2000 g/ha (B alone)
[19] = 10 DAT, rate 2000 g/ha (B alone)
[20] = 5 DAT, rate 1000 g/ha (B alone)
[21] = 11 DAT, rate 1000 g/ha (B alone)

CC(C)N(C)S(=O)(=O)NC(=O)c1cc(-n2c(=O)cc(C(F)(F)F)n(C)c2=O)c(F)cc1Cl [A.1.1, saflufenacil]
% damage ([1]; 7 DAT, rate 60 g/ha (A alone)): 10%
% damage ([1]; 10 DAT, rate 60 g/ha (A alone)): 56%
% damage ([1]; 11 DAT, rate 60 g/ha (A alone)): 10% and 18% and 19%
% damage ([1]; 42 DAT, rate 60 g/ha (A alone)): 45%
% damage ([2]; 4 DAT, rate 60 g/ha (A alone)): 28%
% damage ([2]; 10 DAT, rate 60 g/ha (A alone)): 35%
% damage ([3]; walk-in chamber, 1 DAT, rate 0.125 g/ha (A alone)): 38%
% damage ([3]; walk-in chamber, 1 DAT, rate 0.250 g/ha (A alone)): 70%
% damage ([3]; walk-in chamber, 1 DAT, rate 0.350 g/ha (A alone)): 65%
% damage [3, 7]: 38%
% damage ([3]; walk-in chamber, 4 DAT, rate 0.250 g/ha (A alone)): 83%
% damage ([3]; walk-in chamber, 4 DAT, rate 0.350 g/ha (A alone)): 90%
% damage [3, 8]: 18%
% damage ([3]; walk-in chamber, 14 DAT, rate 0.250 g/ha (A alone)): 67%
% damage ([3]; walk-in chamber, 14 DAT, rate 0.350 g/ha (A alone)): 75%
% damage [4, 9]: 67%
% damage [4, 10]: 96%
% damage [4, 11]: 35%
% damage [4, 12]: 83%
% damage [5, 9]: 95%
% damage [5, 10]: 98%
% damage [5, 11]: 85%
% damage [5, 12]: 93%
% damage ([6]; 2 DAT, rate 60 g/ha (A alone)): 55%
% damage ([6]; 8 DAT, rate 60 g/ha (A alone)): 34%

CCOC(=O)COc1ncccc1Oc1cc(-n2c(=O)cc(C(F)(F)F)n(C)c2=O)c(F)cc1Cl [A.1.2, ethyl[3-[2-chloro-4-fluoro-5-(1-methyl-6-trifluoromethyl-2,4-dioxo-1,2,3,4-tetrahydropyrimidin-3-yl)phenoxy]-2-pyridyloxy]acetate]
% damage ([3]; walk-in chamber, 4 DAT, rate 10 g/ha (A alone)): 95%
% damage ([3]; walk-in chamber, 14 DAT, rate 10 g/ha (A alone)): 80%
% damage ([5]; walk-in chamber, 4 DAT, rate 0.5 g/ha (A alone)): 99%
% damage ([5]; walk-in chamber, 14 DAT, rate 0.5 g/ha (A alone)): 96%

CCOC(=O)C(Cl)Cc1cc(-n2nc(C)n(C(F)F)c2=O)c(F)cc1Cl (centres unmarked) [A.2.1, carfentrazone-ethyl]
% damage ([3]; growth chamber, 4 DAT, rate 10 g/ha (A alone)): 57%
% damage ([3]; growth chamber, 14 DAT, rate 10 g/ha (A alone)): 47%
% damage ([5]; growth chamber, 4 DAT, rate 0.5 g/ha (A alone)): 94%
% damage ([5]; growth chamber, 14 DAT, rate 0.5 g/ha (A alone)): 83%

CCOc1cc(Oc2ccc(C(F)(F)F)cc2Cl)ccc1[N+](=O)[O-] [A.4.1, oxyfluorofen]
% damage [4, 13]: 93%
% damage [4, 14]: 80%
% damage ([5]; walk-in chamber, 4 DAT, rate 5 g/ha (A alone)): 94%
% damage [5, 13]: 99%
% damage ([5]; walk-in chamber, 14 DAT, rate 5 g/ha (A alone)): 83%
% damage [5, 14]: 95%

C#CCN1C(=O)COc2cc(F)c(-n3c(=O)n(C)c(=S)n(C)c3=O)cc21 [A.5.1, 3-[7-fluoro-3-oxo-4-(prop-2-ynyl)-3,4-dihydro-2H-benzo[1,4]oxazin-6-yl]-1,5-dimethyl-6-thioxo-[1,3,5]triazinan-2,4-dione]
% damage ([4]; walk-in chamber, 4 DAT, rate 1 g/ha (A alone)): 94%
% damage ([4]; walk-in chamber, 14 DAT, rate 1 g/ha (A alone)): 55%
% damage [5, 7]: 92%
% damage [5, 8]: 70%

C#CCN1C(=O)COc2cc(F)c(N3C(=O)C4=C(CCCC4)C3=O)cc21 [A.5.2, flumioxazin]
% damage ([4]; growth chamber, 4 DAT, rate 2 g/ha (A alone)): 98%
% damage ([4]; growth chamber, 14 DAT, rate 2 g/ha (A alone)): 98%

CC(C)(C)CC(C)(C)c1cc(Cc2cc(C(C)(C)CC(C)(C)C)cc(-n3nc4ccccc4n3)c2O)c(O)c(-n2nc3ccccc3n2)c1 [B.1.1.1, 2,2-methylenbis-6-(benzotriazol-2-yl)-4-tert-octylphenol]
% damage ([6]; 2 DAT, rate 500 g/ha (B alone)): 0%
% damage ([6]; 8 DAT, rate 500 g/ha (B alone)): 0%

CCCCN1C(=O)c2cc3nn(-c4cc(C(C)(C)CC(C)(C)C)cc(C(C)(C)c5ccccc5)c4O)nc3cc2C1=O [B.1.1.2]
% damage ([6]; 2 DAT, rate 500 g/ha (B alone)): 0%
% damage ([6]; 8 DAT, rate 500 g/ha (B alone)): 0%

CCCCC(CC)COC(=O)C(C#N)=C(c1ccccc1)c1ccccc1 (centres unmarked) [B.1.2.2, 2-cyano-3,3-diphenylacrylic acid-2′-ethylhexyl ester]
% damage ([1]; 7 DAT, rate 500 g/ha (B alone)): 10%
% damage [1, 15]: 10%

CCCCC(CC)COC(=O)C=Cc1ccc(OC)cc1 (centres unmarked) [B.1.5.1, 2-ethylhexyl 4-methoxycinnamate]
% damage ([6]; 2 DAT, rate 500 g/ha (B alone)): 0%
% damage ([6]; 8 DAT, rate 500 g/ha (B alone)): 0%

CCCCCCOC(=O)c1ccccc1C(=O)c1ccc(N(CC)CC)cc1O [B.1.6.1, 2-(4-diethylamino-2-hydroxybenzoyl)-benzoic acid hexylester]
% damage ([1]; 7 DAT, rate 500 g/ha (B alone)): 0%
% damage [1, 15]: 0%

O=C(c1ccccc1)c1ccc(O)cc1O [B.1.6.3, 2,4-dihydroxybenzo-phenone]
% damage [1, 16]: 13%
% damage [1, 17]: 0%
% damage [2, 18]: 39%
% damage [2, 19]: 20%

COc1ccc(C(=O)c2ccccc2)c(O)c1 [B.1.6.4, 2-hydroxy-4-methoxybenzophenone]
% damage ([1]; 5 DAT, rate 500 g/ha (B alone)): 5%
% damage [1, 16]: 0%
% damage [1, 15]: 5%
% damage [1, 17]: 13%
% damage [2, 18]: 15%
% damage [2, 19]: 10%
% damage ([6]; 2 DAT, rate 500 g/ha (B alone)): 0%
% damage ([6]; 8 DAT, rate 500 g/ha (B alone)): 0%

CCN(CC)c1ccc(C(=O)c2ccccc2C(=O)N2CCN(C(=O)c3ccccc3C(=O)c3ccc(N(CC)CC)cc3O)CC2)c(O)c1 [B.1.6.5]
% damage ([6]; 2 DAT, rate 500 g/ha (B alone)): 0%
% damage ([6]; 8 DAT, rate 500 g/ha (B alone)): 0%

COc1cc(O)c(C(=O)c2ccccc2)cc1S(=O)(=O)O [B.1.7.1, 2-hydroxy-4-methoxy-benzophenone-5-sulfonic acid]
% damage ([6]; 2 DAT, rate 500 g/ha (B alone)): 0%
% damage ([6]; 8 DAT, rate 500 g/ha (B alone)): 0%

CCCCC(CC)COC(=O)c1ccc(Nc2nc(Nc3ccc(C(=O)OCC(CC)CCCC)cc3)nc(Nc3ccc(C(=O)OCC(CC)CCCC)cc3)n2)cc1 (centres unmarked) [B.1.11.1, 2,4,6-trinanilino-p-(carbo-2′-ethyl-hexyl-1′-oxy)-1,3,5-triazine]
% damage ([6]; 2 DAT, rate 500 g/ha (B alone)): 0%
% damage ([6]; 8 DAT, rate 500 g/ha (B alone)): 0%

CNC(=O)c1ccc(Nc2nc(NC)nc(Nc3ccc(/C=C/c4ccc(Nc5nc(NC)nc(Nc6ccc(C(=O)NC)cc6)n5)cc4S(=O)(=O)[O-])c(S(=O)(=O)[O-])c3)n2)cc1.[Na+].[Na+] [B.1.16.1]
% damage ([6]; 2 DAT, rate 500 g/ha (B alone)): 0%
% damage ([6]; 8 DAT, rate 500 g/ha (B alone)): 0%

CCOC(=O)C(C#N)=C1C=C(NC(C)CC)CC(C)(C)C1 (centres unmarked) [B.1.17.1, 2-cyano-2-[5,5-dimethyl-3-[(1-methylpropyl)amino]-2-cyclohexen-1-ylidene]-acetic acid ethyl ester]
% damage ([6]; 2 DAT, rate 500 g/ha (B alone)): 0%
% damage ([6]; 2 DAT, rate 1000 g/ha (B alone)): 0%
% damage ([6]; 8 DAT, rate 500 g/ha (B alone)): 0%
% damage ([6]; 8 DAT, rate 1000 g/ha (B alone)): 0%

CC(C)c1cccc(C(C)C)c1N1C(=O)c2cccc3c(Oc4ccc(C(C)(C)CC(C)(C)C)cc4)ccc(c23)C1=O [B.1.18.1, 2-[2,6-bis(1-methylethyl)phenyl]-6-[4-(1,1,3,3-tetramethylbutyl)phenoxy]-1H-benz[de]isoquinoline-1,3(2H)-dione]
% damage ([6]; 2 DAT, rate 500 g/ha (B alone)): 0%
% damage ([6]; 8 DAT, rate 500 g/ha (B alone)): 0%

CCCOC(=O)c1cc(O)c(=O)c2c(O)c(O)ccc2c1 [B.1.19.1, 3,4,6-trihydroxy-5-oxo-5H-benzocycloheptene-8-carboxylic acid propyl ester]
% damage ([6]; 2 DAT, rate 250 g/ha (B alone)): 0%
% damage ([6]; 2 DAT, rate 500 g/ha (B alone)): 0%
% damage ([6]; 8 DAT, rate 250 g/ha (B alone)): 0%
% damage ([6]; 8 DAT, rate 500 g/ha (B alone)): 0%

Cc1c(C)c2c(c(C)c1O)CC[C@@](C)(CCC[C@H](C)CCC[C@H](C)CCCC(C)C)O2 [B.3.4.1, α-tocopherol]
% damage ([1]; 5 DAT, rate 7000 g/ha (B alone)): 0%
% damage ([1]; 11 DAT, rate 7000 g/ha (B alone)): 0%

c1ccc(Nc2ccccc2)cc1 [B.3.19.1, diphenylamine]
% damage [1, 20]: 0%
% damage [1, 21]: 0%

Oc1ccc(C=Cc2cc(O)cc(O)c2)cc1 [B.3.27.1, resveratrol]
% damage [1, 20]: 10%
% damage [1, 21]: 0%

CC1=CC(=O)CC(C)(C)[C@@]1(O)/C=C/C(C)=C\C(=O)O [B.3.28.1, abscisic acid]
% damage [1, 20]: 1%
% damage [1, 21]: 0%

CCCOC(=O)c1cc(O)c(O)c(O)c1 [B.3.29.1, n-propylgallate]
% damage [1, 20]: 0% and 5%
% damage [1, 21]: 0% and 8%

— patent US20130102463A1, “Herbicidal Compositions” (BASF SE, priority 2010, published 2013)
